According to patent publication US20030153611A1, “1,3-Diarylprop-2-en-1-ones, compositions containing them and use thereof” (AVENTIS PHARMA S.A., priority 2001, published 2003):
Where a name gives a salt, the structure may show the parent alone.

Tests used:
Tubulin = target: T1, Tubulin (Sus scrofa, UniProt P02550+P02554); experiment: Assessment of the inhibition of tubulin polymerization (turbidimetry); format: biochemical, pig; details: tubulin 10 μM, turbidity at 350 nm, 37° C.
T1 construct: Tubulin is purified from pig brains according to the published methods; from tissue; host or cells: pig brain
Experimental: Tubulin is purified from pig brains according to the published methods (Shelanski et al., 1973, Proc. Natl, Acad. Sci. USA, 70, 765-768. Weingarten et al., 1975, Proc. Natl, Acad. Sci. USA, 72, 1858-1862). Briefly, the brains are ground and centrifuged in an extraction buffer. The tubulin, contained in the extract supernatant, is subjected to two successive cycles of polymerization at 37° C. and depolymerization at 4° C., before being separated from the MAPs (Microtubule Associated Proteins) by chromatography on a phosphocellulose P11 column (Whatman). The tubulin thus isolated is more than 95% pure. It is stored in a buffer known as RB/2 30% glycerol, the composition of which is MES-NaOH [2-(N-morpholino)ethanesulfonic acid] 50 mM, pH 6.8; MgCl2 0.25 mM; EGTA 0.5 mM; 30% glycerol (v/v), GTP (guanosine 5′-triphosphate) 0.2 mM.
The polymerization of the tubulin into microtubules is monitored by turbidimetry as follows; the tubulin is adjusted to a concentration of 10 μM (1 mg/ml) in the RB/2 30% glycerol buffer, to which is added 1 mM GTP and 6 mM MgCl2. The polymerization is initiated by increasing the temperature from 6° C. to 37° C. in a cuvette with a 1 cm optical pathlength, placed in a Uvikon 931 spectrophotometer (Kontron) equipped with a thermostatically-regulated cuvette holder. The increase in the turbidity of the solution is monitored at 350 nm.
The products are dissolved at 10 mM in DMSO and added at variable concentrations (0.5 to 10 μM) to the tubulin solution before polymerization. The IC50 value is defined as the concentration of product which inhibits 50% of the rate of polymerization. A product whose IC50 value is less than or equal to 3 μM is considered as very active.

HDMEC = experiment: Inhibition of cell proliferation, HDMEC; format: cell-based; details: Homo sapiens
HeLa cells = experiment: Inhibition of proliferation of HeLa cells ([14C]-thymidine incorporation); format: cell-based; details: Homo sapiens, incubation for 48 hours, read-out: Inhibition of cell proliferation IC50 HeLa
Experimental: The proliferation of HeLa cells is assessed by measuring the incorporation of [^14C]-thymidine in the following way. The HeLa cells (epithelial tumor cells of human origin) are cultured in a DMEM medium (Gibco) which contains 10% fetal calf serum and antibiotics (1% penicillin, 1% streptomycin). To carry out the proliferation test, the cells are inoculated into 96-well cytostar microplates (Amersham), at a rate of 5 000 cells per well. [^14C]-thymidine (0.1 μCi/well) and the products to be assessed are then added. Variable concentrations of products up to 10 μM are used; the DMSO (solvent used to dissolve the products) should not exceed 0.5% in the medium. After incubation for 48 hours at 37° C., the radioactivity incorporated into the cells is measured by counting the plate in a TRI-LUX counter (Wallac). The IC50 value is defined as the concentration of product which reduces the radioactivity by 50% relative to an untreated control. A product whose IC50 value is less than 1 μM is considered as cytotoxic.

HDMEC cells = experiment: Detachment effect on HDMEC endothelial cells; format: cell-based, Human; details: treatment for two hours
Description: A test to determine the detachment of endothelial cells was established in order to select the products on the basis of their “in vitro” activity. This test for determining the endothelial cell detachment is characterized in that the endothelial cells, inoculated in plates which are coated at the bottom with a binder, e.g., chosen from gelatin, fibronectin or vitronectin, after culturing, are supplemented with a medium containing the test compound, and the cells are then labeled with a fluorescent substance, the cells which become detached are removed by washing and the fluorescence of the remaining cells is counted in a fluorimeter.
This test consists in measuring the detachment of endothelial cells cultured on substrates based on a binder, e.g., chosen from fibronectin, vitronectin and gelatin. One day after inoculating the cells in plates containing 96 wells, for example, the culture medium is replaced with a medium containing the test compound in the absence of serum. The same preparation is prepared six times at three different concentrations ([…]) and the control without addition of antivascular product is prepared six times. After treatment for two hours with the test substance, the cells are labeled with calcein-AM (1.6 μg/ml) in a culture medium supplemented with 0.1% BSA. The cells which become detached are removed by washing with the culture medium containing 0.1% bovine serum albumin; 100 μl of medium are added to each well. The fluorescence of the remaining cells is counted in a fluorimeter. The data obtained are expressed relative to the control (untreated cells).
(§1) The assessment of the detachment of the endothelial cells in vitro is determined in the following way. HDMEC cells (Human Dermal Microvascular Endothelial Cells, Promocell, c-122102) are cultured in an ECGM-MV medium containing 5% fetal calf serum, growth factors (EGF 10 ng/ml, hydrocortisone 1 μg/ml, 0.4% growth supplement with heparin) and antibiotics (amphotericin 50 ng/ml, gentamicin 50 μg/ml). For the detachment test, the HDMECs are inoculated at a rate of 5 000 cells in clear-bottomed 96-well plates (Costar) precoated with fibronectin (10 μg/ml) or vitronectin (1 μg/ml) or gelatin. Twenty-four hours later, the culture medium is replaced with 0.1% BSA ECGM-MV medium containing the indicated products. The test concentrations are 0.1-0.3 and 1 μM for each product. After treatment for two hours, the cells are labeled for 1 hour with calcein (1.6 μg/ml, Molecular Probes) in 0.1% BSA ECGM-MV medium. The detached cells are then removed by washing with 0.1% BSA ECGM-MV medium; 100 μl of medium are added to each well. The fluorescence of the cells which remain attached to the substratum of the well is counted using a fluorimeter, Spectrafluor Plus (Tecan, excitation at 485 nm, and emission at 535 nm). The data are the average of six different samples and are expressed as a percentage of the control (untreated cells).
A cell detachment effect of greater than or equal to 15% is considered as significant.
as §1, with “(amphotericine” for “(amphotericin”, “The detached cells are then removed by washing with 0.1% BSA ECGM-MV medium; 100 μl of medium are added to each well. The fluorescence of the cells which remain attached to the substratum of the well is counted using a fluorimeter, Spectrafluor Plus (Tecan, excitation at 485 nm, and emission at 535 nm). The data are the average of six different samples and are expressed as a percentage of the control (untreated cells).” left out

T1 sequence (P02550 whole entry): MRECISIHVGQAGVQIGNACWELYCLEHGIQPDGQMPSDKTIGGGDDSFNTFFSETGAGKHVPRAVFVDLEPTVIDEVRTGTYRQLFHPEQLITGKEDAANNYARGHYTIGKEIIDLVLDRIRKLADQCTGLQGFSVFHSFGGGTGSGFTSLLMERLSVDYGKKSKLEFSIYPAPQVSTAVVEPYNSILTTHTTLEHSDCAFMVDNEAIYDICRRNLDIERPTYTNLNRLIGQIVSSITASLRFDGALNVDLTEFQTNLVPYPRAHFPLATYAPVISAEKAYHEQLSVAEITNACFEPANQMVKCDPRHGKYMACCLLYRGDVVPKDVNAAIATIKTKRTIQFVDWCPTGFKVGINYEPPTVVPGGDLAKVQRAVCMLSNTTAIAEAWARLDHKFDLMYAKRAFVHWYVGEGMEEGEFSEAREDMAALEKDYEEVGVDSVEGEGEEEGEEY
T1 sequence (P02554 whole entry): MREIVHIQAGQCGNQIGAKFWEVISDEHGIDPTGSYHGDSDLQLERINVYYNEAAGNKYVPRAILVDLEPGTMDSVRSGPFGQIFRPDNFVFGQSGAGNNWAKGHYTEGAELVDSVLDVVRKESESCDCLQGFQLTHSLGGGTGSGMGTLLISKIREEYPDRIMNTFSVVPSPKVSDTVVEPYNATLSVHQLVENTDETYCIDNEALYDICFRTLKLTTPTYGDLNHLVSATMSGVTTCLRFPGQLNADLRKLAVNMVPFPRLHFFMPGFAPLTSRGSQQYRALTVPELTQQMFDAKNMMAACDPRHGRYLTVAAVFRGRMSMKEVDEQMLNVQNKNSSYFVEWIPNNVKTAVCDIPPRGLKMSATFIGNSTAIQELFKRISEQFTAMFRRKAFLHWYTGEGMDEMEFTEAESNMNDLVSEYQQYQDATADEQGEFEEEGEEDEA

SMILES	IC50 (Tubulin)	IC50 (HDMEC)	IC50 (HeLa cells)	Percentage of detachment of HDMEC cells induced with the compound at a concentration of 0.1 μM (HDMEC cells)	Percentage of detachment of HDMEC cells induced with the compound at a concentration of 0.3 μM (HDMEC cells)	Percentage of detachment of HDMEC cells induced with the compound at a concentration of 1 μM (HDMEC cells)
COc1cc(C(=NO)/C(C)=C/c2ccc3c(ccn3C)c2)cc(OC)c1OC (mixture of isomers) [Example 7, E-2-Methyl-3-(1-methyl-1-H-indol-5-yl)-1-(3,4,5-trimethoxyphenyl)propenoneoxime]	2000 nM	300 to 500 nM	–	–	–	–
COc1ccc(/C=C(\C)C(=O)c2cc(OC)c(OC)c(OC)c2)cc1N [Example 1, E-3-(3-Amino-4-methoxyphenyl)-2-methyl-1-(3,4,5-trimethoxyphenyl)propenone]	300 nM	2.5 to 3.2 nM	3.6 to 4.3 nM	21-36%	18-38%	37-42%
COc1cc(/C=C(\C)C(=O)c2cc(OC)c(OC)c(OC)c2)ccc1N [Example 2, E-3-(4-Amino-3-methoxyphenyl)-2-methyl-1-(3,4,5-trimethoxyphenyl)propenone]	2500 nM	1.9 to 4 nM	39 to 104 nM	16-21%	17-32%	31-49%
COc1ccc(OC)c(C(=O)/C(C)=C/c2ccc(OC)c(N)c2)c1.Cl [Example 3, E-3-(3-Amino-4-methoxyphenyl)-2-methyl-1-(2,5-dimethoxyphenyl)propenone hydrochloride]	500 nM	< 19 nM	< 19 nM	31%	37%	34%
COc1ccc(/C=C(\Br)C(=O)c2cc(OC)c(OC)c(OC)c2)cc1N [Example 4, E-3-(3-Amino-4-methoxyphenyl)-2-bromo-1-(3,4,5-trimethoxyphenyl)propenone]	600 nM	–	–	–	–	–
COc1cc(C(=N\O)/C(C)=C/c2ccc3c(ccn3C)c2)cc(OC)c1OC [Example 8, E-2-Methyl-3-(1-methyl-1-H-indol-5-yl)-1-(3,4,5-trimethoxyphenyl)propenone Z-oxime]	800 nM	–	–	–	–	–
COc1cc(C(=N/O)/C(C)=C/c2ccc3c(ccn3C)c2)cc(OC)c1OC [Example 9, E-2-Methyl-3-(1-methyl-1-H-indol-5-yl)-1-(3,4,5-trimethoxyphenyl)propenone E-oxime]	3500 nM	–	–	–	–	–
COc1ccc(/C=C(\C)C(=O)c2cc(OC)c(OC)c(OC)c2)cc1NC(=O)[C@@H](N)CCCNC(=N)N[N+](=O)[O-] [Example 11, 2-Amino-5-[3-(1-nitroguanidino)]-pentanoic acid {2-methoxy-5-[2-methyl-3-oxo-3-(3,4,5-trimethoxy-phenyl)propenyl]phenyl}amide hydrochloride]	–	400 nM	–	–	–	–
COc1ccc(/C=C(\C)C(=O)c2cc(OC)c(OC)c(OC)c2)cc1NC(=O)[C@@H]1CCCN1C [Example 12, 1-Methylpyrrolidine-2-carboxylic acid {2-methoxy-5-[2-methyl-3-oxo-3-(3,4,5-trimethoxyphenyl)propenyl]phenyl}amide hydrochloride]	–	320 nM	–	–	–	–
COc1ccc(/C=C(\C)C(=O)c2cc(OC)c(OC)c(OC)c2)cc1NC(=O)[C@@H](N)C(C)C [Example 15, (S)-2-Amino-3-methylbutanoic acid {2-methoxy-5-[2-methyl-3-oxo-3-(3,4,5-trimethoxy-phenyl)propenyl]phenyl}amide hydrochloride]	9000 nM	30 to 60 nM	–	–	–	–
COc1cc(C(=O)/C(C)=C/c2ccc3c(ccn3C)c2)cc2c1OCO2 [Example 16, E-2-Methyl-3-(1-methyl-1-H-indol-5-yl)-1-(3-methoxy-4,5-methylenedioxyphenyl)propenone]	500 nM	–	–	–	–	–
COc1cc(C(=O)/C(C)=C/c2ccc3[nH]ccc3c2)cc(OC)c1OC [Example 19, E-2-Methyl-3-(1-H-indol-5-yl)-1-(3,4,5-trimethoxyphenyl)propenone]	800 nM	–	–	–	–	–
COc1cc(C(=O)/C(C)=C/c2ccc3c(ccn3CCN(C)C)c2)cc(OC)c1OC [Example 20, E-2-Methyl-3-[1-(2-dimethylaminoethyl)-1-H-indol-5-yl]-1-(3,4,5-trimethoxyphenyl)propenone hydrochloride]	2000 nM	–	–	–	–	–
COc1cc(C(=O)/C(C)=C/c2ccc3c(ccn3CO)c2)cc(OC)c1OC [Example 21, E-2-Methyl-3-(1-hydroxymethyl-1-H-indol-5-yl)-1-(3,4,5-trimethoxyphenyl)propenone]	500 nM	–	–	–	–	–
